BigSolDB 2.1

SMILES: Cl.Cl.Fc1ccc(C(c2ccc(F)cc2)N2CCN(C/C=C/c3ccccc3)CC2)cc1
- solubility (mole fraction) (in acetone, 293.15 K): 0.00271
- solubility (mole fraction) (in acetone, 298.15 K): 0.00338
- solubility (mole fraction) (in acetone, 303.15 K): 0.00422
- solubility (mole fraction) (in acetone, 308.15 K): 0.00518
- solubility (mole fraction) (in acetone, 313.15 K): 0.00638
- solubility (mole fraction) (in acetone, 318.15 K): 0.0078
- solubility (mole fraction) (in acetone, 323.15 K): 0.00948
- solubility (mole fraction) (in acetone, 328.15 K): 0.0115
- solubility (mole fraction) (in acetone, 333.15 K): 0.0139
- solubility (mole fraction) (in acetonitrile, 293.15 K): 0.00219
- solubility (mole fraction) (in acetonitrile, 298.15 K): 0.00275
- solubility (mole fraction) (in acetonitrile, 303.15 K): 0.00343
- solubility (mole fraction) (in acetonitrile, 308.15 K): 0.00428
- solubility (mole fraction) (in acetonitrile, 313.15 K): 0.00528
- solubility (mole fraction) (in acetonitrile, 318.15 K): 0.00651
- solubility (mole fraction) (in acetonitrile, 323.15 K): 0.008
- solubility (mole fraction) (in acetonitrile, 328.15 K): 0.00977
- solubility (mole fraction) (in acetonitrile, 333.15 K): 0.0119
- solubility (mole fraction) (in ethanol, 293.15 K): 0.00522
- solubility (mole fraction) (in ethanol, 298.15 K): 0.00649
- solubility (mole fraction) (in ethanol, 303.15 K): 0.00792
- solubility (mole fraction) (in ethanol, 308.15 K): 0.00975
- solubility (mole fraction) (in ethanol, 313.15 K): 0.0119
- solubility (mole fraction) (in ethanol, 318.15 K): 0.0145
- solubility (mole fraction) (in ethanol, 323.15 K): 0.0176
- solubility (mole fraction) (in ethanol, 328.15 K): 0.0211
- solubility (mole fraction) (in ethanol, 333.15 K): 0.0252
- solubility (mole fraction) (in ethyl acetate, 293.15 K): 0.00146
- solubility (mole fraction) (in ethyl acetate, 298.15 K): 0.00184
- solubility (mole fraction) (in ethyl acetate, 303.15 K): 0.00229
- solubility (mole fraction) (in ethyl acetate, 308.15 K): 0.00285
- solubility (mole fraction) (in ethyl acetate, 313.15 K): 0.00353
- solubility (mole fraction) (in ethyl acetate, 318.15 K): 0.00434
- solubility (mole fraction) (in ethyl acetate, 323.15 K): 0.0053
- solubility (mole fraction) (in ethyl acetate, 328.15 K): 0.00644
- solubility (mole fraction) (in ethyl acetate, 333.15 K): 0.00782
- solubility (mole fraction) (in isobutanol, 293.15 K): 0.00186
- solubility (mole fraction) (in isobutanol, 298.15 K): 0.00236
- solubility (mole fraction) (in isobutanol, 303.15 K): 0.00296
- solubility (mole fraction) (in isobutanol, 308.15 K): 0.00371
- solubility (mole fraction) (in isobutanol, 313.15 K): 0.00462
- solubility (mole fraction) (in isobutanol, 318.15 K): 0.00573
- solubility (mole fraction) (in isobutanol, 323.15 K): 0.00711
- solubility (mole fraction) (in isobutanol, 328.15 K): 0.00873
- solubility (mole fraction) (in isobutanol, 333.15 K): 0.0106
- solubility (mole fraction) (in isopropanol, 293.15 K): 0.0026
- solubility (mole fraction) (in isopropanol, 298.15 K): 0.00328
- solubility (mole fraction) (in isopropanol, 303.15 K): 0.00406
- solubility (mole fraction) (in isopropanol, 308.15 K): 0.00501
- solubility (mole fraction) (in isopropanol, 313.15 K): 0.00618
- solubility (mole fraction) (in isopropanol, 318.15 K): 0.00756
- solubility (mole fraction) (in isopropanol, 323.15 K): 0.00919
- solubility (mole fraction) (in isopropanol, 328.15 K): 0.0112
- solubility (mole fraction) (in isopropanol, 333.15 K): 0.0136
- solubility (mole fraction) (in methanol, 293.15 K): 0.00604
- solubility (mole fraction) (in methanol, 298.15 K): 0.0076
- solubility (mole fraction) (in methanol, 303.15 K): 0.00934
- solubility (mole fraction) (in methanol, 308.15 K): 0.0115
- solubility (mole fraction) (in methanol, 313.15 K): 0.0139
- solubility (mole fraction) (in methanol, 318.15 K): 0.017
- solubility (mole fraction) (in methanol, 323.15 K): 0.0207
- solubility (mole fraction) (in methanol, 328.15 K): 0.025
- solubility (mole fraction) (in methanol, 333.15 K): 0.0298
- solubility (mole fraction) (in methyl acetate, 293.15 K): 0.00133
- solubility (mole fraction) (in methyl acetate, 298.15 K): 0.00168
- solubility (mole fraction) (in methyl acetate, 303.15 K): 0.00211
- solubility (mole fraction) (in methyl acetate, 308.15 K): 0.00263
- solubility (mole fraction) (in methyl acetate, 313.15 K): 0.00326
- solubility (mole fraction) (in methyl acetate, 318.15 K): 0.004
- solubility (mole fraction) (in methyl acetate, 323.15 K): 0.00494
- solubility (mole fraction) (in methyl acetate, 328.15 K): 0.00603
- solubility (mole fraction) (in methyl acetate, 333.15 K): 0.00736
- solubility (mole fraction) (in n-butanol, 293.15 K): 0.00185
- solubility (mole fraction) (in n-butanol, 298.15 K): 0.00236
- solubility (mole fraction) (in n-butanol, 303.15 K): 0.00296
- solubility (mole fraction) (in n-butanol, 308.15 K): 0.00372
- solubility (mole fraction) (in n-butanol, 313.15 K): 0.00464
- solubility (mole fraction) (in n-butanol, 318.15 K): 0.00575
- solubility (mole fraction) (in n-butanol, 323.15 K): 0.00712
- solubility (mole fraction) (in n-butanol, 328.15 K): 0.00875
- solubility (mole fraction) (in n-butanol, 333.15 K): 0.0107
- solubility (mole fraction) (in n-propanol, 293.15 K): 0.00472
- solubility (mole fraction) (in n-propanol, 298.15 K): 0.00587
- solubility (mole fraction) (in n-propanol, 303.15 K): 0.00714
- solubility (mole fraction) (in n-propanol, 308.15 K): 0.00877
- solubility (mole fraction) (in n-propanol, 313.15 K): 0.0108
- solubility (mole fraction) (in n-propanol, 318.15 K): 0.013
- solubility (mole fraction) (in n-propanol, 323.15 K): 0.0157
- solubility (mole fraction) (in n-propanol, 328.15 K): 0.0189
- solubility (mole fraction) (in n-propanol, 333.15 K): 0.0225
